In test [1] the target is T1, NatL2 (Streptomyces sp. Tu 6176, UniProt A0A022MRT4).
T1 construct: N-terminal hexahistidine-tagged, expressed in E. coli; homodimer, structural Zn2+; residues 5-436 traced (C-terminal extension 405-436)
T1 sequence (A0A022MRT4 1-436): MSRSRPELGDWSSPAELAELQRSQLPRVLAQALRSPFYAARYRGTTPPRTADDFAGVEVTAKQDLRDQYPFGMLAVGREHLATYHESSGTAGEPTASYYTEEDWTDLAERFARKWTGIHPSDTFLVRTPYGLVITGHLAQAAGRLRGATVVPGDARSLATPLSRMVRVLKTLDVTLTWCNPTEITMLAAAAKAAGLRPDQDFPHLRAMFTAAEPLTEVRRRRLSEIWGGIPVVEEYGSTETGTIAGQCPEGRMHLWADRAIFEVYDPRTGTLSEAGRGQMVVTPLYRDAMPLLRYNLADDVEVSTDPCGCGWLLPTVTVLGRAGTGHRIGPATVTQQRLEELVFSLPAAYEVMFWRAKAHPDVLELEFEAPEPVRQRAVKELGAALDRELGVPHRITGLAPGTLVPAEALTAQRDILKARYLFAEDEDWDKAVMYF
As to the kind of experiment: X-ray crystallography (soaked crystal). Type of test: binding.

For test [2], the target named is T1, NatL2. Description: X-ray crystallography, […] Å. Type of test: binding. The following applies: crystallised in the presence of ATP; density modelled as AMP; Lys418 from other monomer.

Consider `Nc1ncnc2c1ncn2[C@@H]1O[C@H](COP(=O)(O)OP(=O)(O)NP(=O)(O)O)[C@@H](O)[C@H]1O` [AMPPNP], for which the “X-ray crystallography (soaked crystal)” value on NatL2 [1] (nucleotide site, binary complex and ternary with 3-HAA, no Mg2+ density) was “These crystals were soaked with AMPPNP and the resulting complex was essentially identical”.

In the case of `Nc1ncnc2c1ncn2[C@@H]1O[C@H](COP(=O)(O)O)[C@@H](O)[C@H]1O` [AMP], the “X-ray crystallography, 1.9 Å” value at NatL2 [2] is given as “Residual electron density in both monomers was best modelled as AMP not ATP”.

As for `O=C(O)c1ccccc1O` [SA], the “X-ray crystallography (soaked crystal)” value at NatL2 [1] (soak of AMP:3-HAA crystals, two SA molecules in subunit A, no AMP, SA1 in 3-HAA1 pocket, SA2 in second substrate pocket, not turned over) is “In subunit A, two molecules of SA are bound but no AMP”.

Source of the values: article PMC7204872, “The Biosynthesis of the Benzoxazole in Nataxazole Proceeds via an Unstable Ester and has Synthetic Utility” (Angewandte Chemie (International Ed. in English), 2020).
